From patent publication US11098077B2, “Locked nucleic acid cyclic dinucleotide compounds and uses thereof” (CHINOOK THERAPEUTICS, INC., priority 2016, dated 2021) come the findings set out here.

The structures appear in SMILES notation. pEC50: −log10 of the molar value.

Usually pEC50 stands for −log10 of the EC50, conventionally taken in molar units.

The subject of series [1] is B16.SIY melanoma cells. The series is described as follows: B16.SIY melanoma tumor model in WT mice (Example 14). In kind it is in vivo, C57BL/6 (WT) mice. The following applies: single IT injection, 100 μg. How it is done:
(§1) Tumors were measured twice weekly.

The test system of series [2] is B16.SIY melanoma cells. The experiment in a line: B16.SIY melanoma tumor model in STING-deficient Goldenticket mice (Example 14). It counts as in vivo. The following applies: STING-deficient GT mice; single IT injection, 100 μg. The protocol: as §1
In series [3] the test system is B16.SIY melanoma tumor cells. The series is described as follows: B16.SIY melanoma tumor model, intra-tumoral injection (Example 13). The following applies: for tumor efficacy compared to reference compound 2′3′-RR-(A)(A): 1 μg dose; for tumor inhibition (tumor volume) compared to HBSS: single IT injection, 0.1, 1, 10 and 100 μg. It counts as in vivo, C57BL/6 mice. The protocol: as §1

The next series has as its target T1, hSTING WT (Homo sapiens, UniProt Q86WV6, H232R).
T1 construct: DNA encoding amino acids 140-379 (amino acid numbering corresponding to Swiss Prot Q86WV6); 6xHIS (N, cleaved yes); SUMO (N, cleaved yes); made in house; host or cells: Rosetta2 (DE3) E. coli
The series is described as follows: Differential scanning fluorometry (DSF) binding to purified STING AA140-379, wild type. The following applies: for hSTING Tm Shift WT: DSF, ligand 1 mM, 1 mg/ml STING AA140-379. How it is done:
(§2) Cells were grown in lysogeny broth at 37° C. until a […] absorbance of 0.6 was reached. […] Cell pellets were re-suspended on ice in a buffer containing 50 mM Tris hydrochloride (Tris-HCl) pH 7.5, 500 mM sodium chloride (NaCl), 20 mM imidazole, 10% glycerol, 1 mM tris(2-carboxyethyl)phosphine hydrochloride (TCEP) and protease inhibitor tablet (Pierce) (Buffer A). Cells were lysed using an S-450D sonifier (Emmerson industrial) on ice. […] Protein was aliquoted, flash frozen in liquid nitrogen and stored at −80° C. until use.
(§3) The protein is heated in the presence of a dye that binds to and fluoresces in hydrophobic environments. The protein is thermally denatured by heating resulting in increased dye binding to the unfolded protein and fluorescence. The temperature midpoint (Tm) of a proteins denaturation is established by calculating the half maximal value of the denaturation curve. The temperature midpoint of the protein in the presence of a ligand is directly related to the affinity of the ligand for the protein and therefore its ability to stabilize the protein at higher temperatures.
(§4) Each of wild type hSTING, HAQ allele hSTING and REF allele hSTING were used with each of the reference compounds and compounds of the invention as listed in Table 4. Samples were placed in hard shell PCR plate (Bio-Rad). The fluorescence as a function of temperature was recorded in a CFX 96 real time PCR machine (Bio-Rad) reading on the HEX channel, excitation 450-490, emission 560-580 nm. The temperature gradient was from 15-80° C. ramping 0.5° C. per 15 seconds and recording every 0.5° C. After subtraction of the background signal from a sample lacking protein and ligand. The midpoint temperature (Tm) was calculated by fitting the curves of the fluorescence as a function of temperature to a Boltzmann sigmoidal function (Graph Pad Prism).

The subject of series [4] is serum TNF-α, IFN-γ, IL-6, MCP-1. The experiment in a line: Systemic serum pro-inflammatory cytokines by Mouse Inflammation Cytometric Bead Array. The following applies: from serum cytokines six hours post-IT injection.
Description: (§5) To assess the ability of the LNA-CDN molecules to promote anti-tumor immunity in aggressive murine tumor models, 6-8 week old female C57BL/6 mice (8 mice per group) were implanted with B16.SIY melanoma tumor cells (1×10^6 cells in 100 μL PBS). […] Treatments began when tumors reached a volume of approximately 100 mm^3, on day 9 post tumor implantation. The compounds were administered by a single subcutaneous injection into the center of the tumor (IT) using a 27 gauge needle. Tumors were measured twice weekly.
The next series addresses T2, hSTING REF allele (Homo sapiens, UniProt Q86WV6).
T2 construct: DNA encoding amino acids 140-379 (amino acid numbering corresponding to Swiss Prot Q86WV6); 6xHIS (N, cleaved yes); SUMO (N, cleaved yes); made in house; host or cells: Rosetta2 (DE3) E. coli
The series is described as follows: Differential scanning fluorometry (DSF) binding to purified STING AA140-379, REF allele. The following applies: for hSTING Tm Shift REF: DSF, ligand 1 mM, 1 mg/ml STING AA140-379. How it is done:
as §2, §3, §4

For series [5], the system named is serum TNF-α, IFN-γ, IL-6, MCP-1. The following applies: mouse, in vivo.
Description: as §5
For series [6], the system named is SIY-specific CD8+ T cells in splenocytes. The experiment in a line: FACS of splenocytes with SIY pentamer (SIY+ CD8+ T cells). In kind it is in vivo, C57BL/6 mice. The following applies: day 7 post IT injection. The protocol: as §1
Data analysis was conducted with FlowJo software (Tree Star).

The test system of series [7] is SIY-specific T cells in splenocytes. The series is described as follows: IFNγ ELISPOT of splenocytes stimulated with SIY peptide. The following applies: day 7 post IT injection; for IFNγ ELISPOT T cell responses compared to reference compound 2′3′-RR-(A)(A): 1 μg dose. It counts as in vivo, C57BL/6 mice.
A further series deals with T3, hSTING HAQ allele (Homo sapiens, UniProt Q86WV6, G230A/H232R/R293Q).
T3 construct: DNA encoding amino acids 140-379 (amino acid numbering corresponding to Swiss Prot Q86WV6); 6xHIS (N, cleaved yes); SUMO (N, cleaved yes); made in house; host or cells: Rosetta2 (DE3) E. coli
T3 sequence (Q86WV6 140-379 G230A/H232R/R293Q limits assumed): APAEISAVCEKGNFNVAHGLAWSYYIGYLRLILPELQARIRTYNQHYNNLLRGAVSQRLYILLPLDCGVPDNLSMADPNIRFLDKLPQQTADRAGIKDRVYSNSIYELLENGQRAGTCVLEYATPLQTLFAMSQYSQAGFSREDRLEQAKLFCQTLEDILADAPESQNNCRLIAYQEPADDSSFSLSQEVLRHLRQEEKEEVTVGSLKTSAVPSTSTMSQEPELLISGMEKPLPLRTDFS
The experiment in a line: Differential scanning fluorometry (DSF) binding to purified STING AA140-379, HAQ allele. The following applies: ligand 1 mM, 1 mg/ml STING AA140-379. The protocol:
as §2, §3, §4
(In general: Differential scanning fluorimetry follows unfolding on heating by fluorescence.)

The target in series [8] is T4, hSTING HAQ allele in THP1-Dual cells (Homo sapiens, UniProt Q86WV6, G230A/H232R/R293Q/R71H).
T4 construct: a human monocyte cell line containing the hSTING HAQ allele; host or cells: THP1-Dual cells
T4 sequence (Q86WV6 whole entry R71H/G230A/H232R/R293Q): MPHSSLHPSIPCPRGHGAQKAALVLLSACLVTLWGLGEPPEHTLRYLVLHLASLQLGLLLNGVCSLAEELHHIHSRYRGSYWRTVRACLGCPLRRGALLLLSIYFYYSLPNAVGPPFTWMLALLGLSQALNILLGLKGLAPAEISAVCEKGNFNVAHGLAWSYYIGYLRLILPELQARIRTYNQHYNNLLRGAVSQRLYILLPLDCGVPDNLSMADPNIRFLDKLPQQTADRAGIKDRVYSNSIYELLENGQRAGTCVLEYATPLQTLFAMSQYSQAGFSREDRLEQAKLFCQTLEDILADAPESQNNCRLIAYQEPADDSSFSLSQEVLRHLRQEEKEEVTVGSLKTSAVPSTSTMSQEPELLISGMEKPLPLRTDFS
The experiment in a line: THP1-Dual IRF-3 inducible secreted luciferase reporter assay (type I interferon activation), without digitonin. In kind it is cell-based. The protocol: After 30 minutes, cells were washed and fresh RPMI media containing 10% FBS was added, and cells were incubated at 37° C. with 5% CO2 Cell culture supernatants from each sample were collected after overnight incubation, and 10 μL of the cell culture supernatants was added to 50 μL QUANTI-Luc reagent (Invivogen). Type I interferon activation was determined by measuring secreted luciferase levels on a SpectraMax M3 spectrophotometer (Molecular Devices).

Where [9] appears, read: for all three alleles (WT, HAQ, REF).

T2 sequence (Q86WV6 140-379): as the sequence (Q86WV6 140-379 G230A/H232R/R293Q limits assumed) above, with A91G, R93H, Q154R counted along it
T1 sequence (Q86WV6 140-379 H232R limits assumed): as the sequence (Q86WV6 140-379 G230A/H232R/R293Q limits assumed) above, with A91G, Q154R counted along it

For `Nc1nc2c(ncn2[C@@H]2O[C@@H]3CO[P@@](=O)(S)O[C@H]4[C@H]5OC[C@]4(CO[P@](=O)(S)O[C@@H]2[C@@H]3F)O[C@H]5n2cnc3c(N)ncnc32)c(=O)[nH]1` [Compound 15c, 2′3′-SR-(3′F-G)(2′O,4′C-LNA-A)], the “tumor rejection (tumor volume) compared to HBSS” value with B16.SIY melanoma cells [1] is listed as “complete tumor rejection”. Further, the “anti-tumor effect (tumor volume)” value with B16.SIY melanoma cells [2] is “no anti-tumor effect”.
For `Nc1ncnc2c1ncn2[C@@H]1O[C@@H]2CO[P@@](=O)(S)O[C@H]3[C@H]4OC[C@]3(CO[P@](=O)(S)O[C@@H]1[C@@H]2O)O[C@H]4n1cnc2c(N)ncnc21` [Compound 10c], in series [3] (single IT injection), the “tumor efficacy compared to reference compound 2′3′-RR-(A)(A)” value is “comparable tumor efficacy as compared to the reference compound 2′3′-RR-(A)(A)”. Moreover, the “tumor inhibition (tumor volume) compared to HBSS” value in [3] is recorded as “potent tumor inhibition as compared to HBSS, in a dose-dependent manner”. The “hSTING Tm Shift WT” value on hSTING WT was 6.5 °C. Besides, the “safety profile compared to reference compound 2′3′-RR-(A)(A)” value in series [4] was “superior safety profile”. On hSTING REF allele, the “hSTING Tm Shift REF” value stood at 5.0 °C. The “systemic cytokines compared with 2′3′-RR-(A)(A)” value in [5] was “significantly lower systemic cytokines than 2′3′-RR-(A)(A)”. Also, in [6], the “range of dose responses (therapeutic window for anti-tumor immunity)” value is “a broader range of dose responses”. Further, in series [7], the “IFNγ ELISPOT T cell responses compared to reference compound 2′3′-RR-(A)(A)” value is recorded as “comparable responses” and the “range of efficacy (doses giving IFNγ ELISPOT response)” value is “an even broader range of efficacy than Compound 5a”. The “IFNγ ELISPOT responses compared to HBSS” value in [7] (all doses tested (0.1, 1, 10, 100 μg)) was “significantly higher responses”. For the same molecule, the “hSTING Tm Shift HAQ” value at hSTING HAQ allele is 10.4 °C. Further, the pEC50 in series [8] was < 3.82.
With `Nc1ncnc2c1ncn2[C@@H]1O[C@@]23CO[C@@H]1[C@@H]2O[P@](=O)(S)OC[C@@]12CO[C@@H]([C@H](n4cnc5c(N)ncnc54)O1)[C@@H]2O[P@](=O)(S)OC3` [Compound 5a], in [3] (single IT injection), the “tumor efficacy compared to reference compound 2′3′-RR-(A)(A)” value is on record as “comparable tumor efficacy as compared to the reference compound 2′3′-RR-(A)(A)”. Also, the tumor regression result in series [3] (single IT injection, 100 μg dose) is recorded as “complete tumor regression”. Moreover, the “tumor inhibition (tumor volume) compared to HBSS” value in series [3] is on record as “potent tumor inhibition as compared to HBSS, in a dose-dependent manner”. Moreover, the “hSTING Tm Shift WT” value at hSTING WT was found to be 16.8 °C. Besides, at hSTING WT (setting [9]), the “Tm shift compared with natural ligand 2′3′-(G)(A)” value is reported as “greater Tm shift than the natural ligand 2′3′-(G)(A)” and the “Tm shift compared with reference compound 2′3′-RR-(A)(A)” value is recorded as “comparable to or greater than that of the reference compound 2′3′-RR-(A)(A)”. Also, in series [4], the “safety profile compared to reference compound 2′3′-RR-(A)(A)” value is listed as “comparable safety profile”. The “hSTING Tm Shift REF” value at hSTING REF allele came to 10.6 °C. The “Tm shift compared with 2′3′-RR-(A)(A) and 2′3′-(G)(A)” value on hSTING REF allele (for the REF allele) is “greater Tm shift than both 2′3′-RR-(A)(A) and 2′3′-(G)(A)”. Besides, the “IFNγ ELISPOT T cell responses compared to reference compound 2′3′-RR-(A)(A)” value in series [7] is recorded as “comparable T cell responses”. The “T cell production of IFNγ in response to SIY peptide stimulation, compared to HBSS” value in series [7] (0.1, 1 and 10 μg doses) is recorded as “significantly higher T cell production of IFNγ”. In addition, the “hSTING Tm Shift HAQ” value at hSTING HAQ allele amounted to 27.6 °C. This molecule also gave a pEC50 in series [8] of 4.38.
